Test results taken from publication PMC6520840, “Antimicrobial and Antibiofilm Effects of Peptides from Venom of Social Wasp and Scorpion on Multidrug-Resistant Acinetobacter baumannii” (Toxins, 2019).
No end group written: not given here.

Legend:
[1] = tested on: A. baumannii isolate AB 53; details: cited from earlier work
Protocol: (§1) In this work, three A. baumannii isolates previously described by Castilho et al. that were isolated from patients with hospital-acquired infections were used. Isolates AB 02 and AB 72 were resistant to ampicillin, amikacin, and ciprofloxacin. AB 53 isolate only presented resistance to ampicillin. […] Thus, AB 02 and AB 72 were considered as MDR strains. The ability to form biofilms by A. baumannii isolates AB 02, AB 53 and AB 72 was determined by crystal violet staining ...

[2] = tested on: A. baumannii isolate AB 72; details: cited from earlier work
Protocol: as §1

[3] = tested on: A. baumannii isolate AB 02 biofilm; assay: Inhibition of biofilm formation on polystyrene plates (MBEC), crystal violet; format: cell-based, Acinetobacter baumannii; details: for Minimal inhibitory concentration against the formation of A. baumannii biofilm (MBEC): Isolate AB 02, polystyrene plate, LB 1/4 + 0.2% glucose, 29 °C, 24 h, crystal violet, OD 595 nm, peptides 25 to 1.56 μM
Protocol: […] [71] methodology with minor modifications. Initially, A. baumannii strains (AB 02, AB 53, and AB 72) were grown for 6 h in LB broth until reaching an optimum growth of 1.0 in the optical density of 600 nm and then the culture concentration was adjusted to 1.5 × 10^8 CFU/mL and 30 μL of the culture was added to the wells containing 170 μL de LB ¼ + 0.2% glucose containing serially diluted peptides ranging from 25 to 1.56 μM. Cells were incubated at 29 °C for 24 h to let biofilms be formed. The supernatant was removed and the wells were washed with 200 μL of PBS twice to remove the non-adherent and weakly adherent cells, maintaining only the mature biofilm formed on the plate. Biofilm quantification was measured by staining attached cells with 0.2% (w/v) violet crystal staining solubilized with ethanol/acetone (80/20 v/v) and quantified at 595 nm. The biofilms formed in cultures with different peptide concentrations were compared with the biofilms formed in cultures of A. baumannii strains without peptides. Analyses were performed in triplicate and three independent experiments were performed for each of these assays.

[4] = tested on: A. baumannii isolate AB 72 biofilm; assay: as above; format: cell-based, Acinetobacter baumannii; details: for Minimal inhibitory concentration against the formation of A. baumannii biofilm (MBEC): Isolate AB 72, polystyrene plate, LB 1/4 + 0.2% glucose, 29 °C, 24 h, crystal violet, OD 595 nm, peptides 25 to 1.56 μM
Protocol: (§2) In order to determine if individual peptides could avoid biofilm formation, the minimal biofilm eradication concentration (MBEC) determination assay was performed using 96-well […] plates according to Feng et al. methodology with minor modifications. Initially, A. baumannii strains (AB 02, AB 53, and AB 72) were grown for 6 h in LB broth until reaching an optimum growth of 1.0 in the optical density of 600 nm and then the culture concentration was adjusted to 1.5 × 10^8 CFU/mL and 30 μL of the culture was added to the wells containing 170 μL de LB ¼ + 0.2% glucose containing serially diluted peptides ranging from 25 to 1.56 μM. Cells were incubated at 29 °C for 24 h to let biofilms be formed. The supernatant was removed and the wells were washed with 200 μL of PBS twice to remove the non-adherent and weakly adherent cells, maintaining only the mature biofilm formed on the plate. Biofilm quantification was measured by staining attached cells with 0.2% (w/v) violet crystal staining solubilized with ethanol/acetone (80/20 v/v) and quantified at 595 nm. The biofilms formed in cultures with different peptide concentrations were compared with the biofilms formed in cultures of A. baumannii strains without peptides. Analyses were performed in triplicate and three independent experiments were performed for each of these assays.

[5] = tested on: A. baumannii isolate AB 53 biofilm; assay: as above; format: cell-based, Acinetobacter baumannii; details: for Minimal inhibitory concentration against the formation of A. baumannii biofilm (MBEC): Isolate AB 53, polystyrene plate, LB 1/4 + 0.2% glucose, 29 °C, 24 h, crystal violet, OD 595 nm, peptides 25 to 1.56 μM
Protocol: as §2

[6] = tested on: A. baumannii isolate AB 02; assay: Minimum inhibitory concentration (MIC), broth microdilution; format: cell-based, Acinetobacter baumannii; details: peptides 25 to 1.56 μM, 24 h at 37 °C, OD 405 nm, triplicates
Protocol: (§3) The minimum inhibitory concentration was determined by broth microdilution according to Wiegand et al.. The AB 02, […] and AB 72 isolates were grown in LB broth medium for 8 h at 37 °C until they reached a growth turbidity corresponding to 0.5 of the McFarland scale. Thirty microliters of each culture were added in the wells of polystyrene plates containing 170 µL of culture medium with different concentrations of the antimicrobial peptides. Agelaia-MPI, Polybia-MPII, Polydim-I, Con10 and NDBP 5.8 antimicrobial peptides were serially diluted from 25 to 1.56 μM. The plate containing different concentrations of individual peptides with the bacterial strains were incubated for 24 h at 37 °C, after which time the plates were read at the optical density of 405 nm. As positive control, bacterial strains without peptides were grown in the same conditions, and as negative control medium alone was used.

[7] = tested on: methicillin-resistant S. aureus (MRSA) biofilm; format: cell-based, Staphylococcus aureus; details: peptide at 12.5 μM, crystal violet
Protocol: (§4) To determine the formation of the biofilm of Staphylococcus spp., the methodology according to Kwasny and Opperman (2010) with modifications was used. Staphylococcus epidermidis and methicillin-resistant Staphylococcus aureus (MRSA) cryopreserved strains at −80 °C were reactivated in solid medium to obtain an isolated colony, which was inoculated in LB medium broth and cultured at 37 °C until they reached a concentration corresponding to 0.5 turbidity of the MacFarland scale. At that concentration, 30 μL of the bacterial culture was added to wells containing 170 μL of tryptic soy broth (HiMedia) broth with 1% glucose. The plate was incubated at 37 °C for 24 h. After this period the bacterial growth was quantified by optical density reading at 600 nm and the formation of the biofilm was determined by the colorimetric method similar to that used for Acinetobacter. The biofilm inhibition test also followed the standard for the previous tests, with modifications in the culture medium used to increase the bacterial biofilm production by Staphylococcus strains.

[8] = tested on: A. baumannii isolate AB 53; assay: Minimum inhibitory concentration (MIC), broth microdilution; format: cell-based, Acinetobacter baumannii; details: peptides 25 to 1.56 μM, 24 h at 37 °C, OD 405 nm, triplicates
S. epidermidis biofilm = format: cell-based, Staphylococcus epidermidis; details: peptide at 12.5 μM, crystal violet
Protocol: as §4

[9] = tested on: A. baumannii isolate AB 72; assay: Minimum inhibitory concentration (MIC), broth microdilution; format: cell-based, Acinetobacter baumannii; details: peptides 25 to 1.56 μM, 24 h at 37 °C, OD 405 nm, triplicates
Protocol: as §3

[10] = tested on: A. baumannii isolate AB 02; details: cited from earlier work
Protocol: as §1

Row | Compound | Antibiotic susceptibility category [1] | Antibiotic susceptibility category [2] | Minimal inhibitory concentration against the formation of A. baumannii biofilm (MBEC) [3] [µM] | Minimal inhibitory concentration against the formation of A. baumannii biofilm (MBEC) [4] [µM] | Minimal inhibitory concentration against the formation of A. baumannii biofilm (MBEC) [5] [µM] | MIC [6] [µM] | MIC [8] [µM] | MIC [9] [µM] | Antibiotic susceptibility category [10] | further results
1 | C[C@@H](O)[C@H]1C(=O)N2C(C(=O)O)=C(S[C@@H]3CN[C@H](C(=O)N(C)C)C3)[C@H](C)[C@H]12 [meropenem] | susceptible | susceptible |  |  |  |  |  |  |  | 
2 | AVAGEKLWLLPHLLKMLLTPTP-NH2 [Polydim-I] |  |  | >25 | >25 | >25 |  |  |  |  | 
3 | INWLKLGKAIIDAL-NH2 [Agelaia-MPI] |  |  | 25 | 12.5 | 6.25 | 6.25 | 3.12 |  |  | Inhibition of biofilm formation [7]: 85%; Inhibition of biofilm formation (S. epidermidis biofilm): 85%
4 | FWSFLVKAASKILPSLIGGGDDNKSSS-NH2 [Con10] |  |  | 25 | 12.5 | 12.5 | 12.5 | 6.25 | 6.25 |  | 
5 | NCC[C@H](O)C(=O)N[C@@H]1C[C@H](N)[C@@H](O[C@H]2O[C@H](CN)[C@@H](O)[C@H](O)[C@H]2O)[C@H](O)[C@H]1O[C@H]1O[C@H](CO)[C@@H](O)[C@H](N)[C@H]1O [amikacin] |  | resistant |  |  |  |  |  |  | resistant | 
6 | CN(C)[C@@H]1C(O)=C(C(N)=O)C(=O)[C@@]2(O)C(O)=C3C(=O)c4c(O)cccc4[C@@](C)(O)[C@H]3C[C@@H]12 [tetracycline] | intermediate susceptibility | intermediate susceptibility |  |  |  |  |  |  | intermediate susceptibility | 
7 | CC1(C)S[C@@H]2[C@H](NC(=O)[C@H](N)c3ccccc3)C(=O)N2[C@H]1C(=O)O [ampicillin] | resistance | resistant |  |  |  |  |  |  | resistant | 
8 | INWLKLGKMVIDAL-NH2 [Polybia-MPII] |  |  | 25 | 25 | 12.5 | 12.5 | 6.25 | 6.25 |  | Inhibition of biofilm formation [7]: 85%; Inhibition of biofilm formation (S. epidermidis biofilm): 85%
9 | O=C(O)c1cn(C2CC2)c2cc(N3CCNCC3)c(F)cc2c1=O [ciprofloxacin] |  | resistant |  |  |  |  |  |  | resistant | 
10 | GILGKIWEGVKSLI-NH2 [NDBP-5.8] |  |  | >25 | >25 | >25 | 25 | 25 | 25 |  | Minimal inhibitory concentration against the formation of A. baumannii biofilm (MBEC) ([3]; listed as NBDP 5.8): 25 µM; Inhibition of the biofilm ([3]; isolate AB 02, peptide at 25 μM): > 95%; Minimal inhibitory concentration against the formation of A. baumannii biofilm (MBEC) ([4]; listed as NBDP 5.8): 25 µM; Inhibition of the biofilm ([4]; isolate AB 72, peptide at 25 μM): > 95%; Minimal inhibitory concentration against the formation of A. baumannii biofilm (MBEC) ([5]; listed as NBDP 5.8): 25 µM; Inhibition of the biofilm ([5]; isolate AB 53, peptide at 25 μM): > 95%
